Experimental data reported in ChEMBL document CHEMBL5518159, “Thiazole-based analogues as potential antibacterial agents against methicillin-resistant Staphylococcus aureus (MRSA) and their SAR elucidation” (Eur J Med Chem, 2023).
In brackets after ≈: the same amount, converted by molar mass.

How the values were obtained:
[1] = tested on: Staphylococcus aureus; experiment: Antibacterial activity against Staphylococcus aureus assessed as reduction in bacterial growth by CLSI based two-fold microdilution method; format: functional
[2] = tested on: Staphylococcus aureus; experiment: Antibacterial activity against […] Staphylococcus aureus ATCC 25923 assessed as reduction in bacterial growth incubated for 24 hrs by micro-broth dilution method; format: functional
[3] = target: DNA gyrase (Escherichia coli, UniProt P0AES4+P0AES6); experiment: Inhibition of Escherichia coli DNA gyrase assessed as reduction in enzyme-mediated supercoiling of relaxed plasmid by fluorescence polarization assay; format: protein-complex assay
[4] = target: DNA gyrase (Staphylococcus aureus, UniProt P0A0K8+P20831); experiment: Inhibition of Staphylococcus aureus DNA gyrase; format: protein-complex assay
[5] = tested on: Staphylococcus aureus; experiment: Antibacterial activity against methicillin-resistant Staphylococcus aureus assessed as reduction in microbial growth measured for 24 hrs by CLSI based broth microdilution method; format: functional
[6] = tested on: Staphylococcus aureus; experiment: Antibacterial activity against […] Staphylococcus aureus ATCC 6538 assessed as reduction in bacterial growth incubated for 18 hrs by CLSI based broth-dilution method; format: functional
[7] = tested on: Staphylococcus aureus; experiment: Antibacterial activity against […] Staphylococcus aureus ATCC 6538 assessed as microbial growth inhibition incubated for 24 hrs by broth micro-dilution analysis; format: functional

Chain of DNA gyrase (Staphylococcus aureus, UniProt P0A0K8+P20831) (P0A0K8 whole entry): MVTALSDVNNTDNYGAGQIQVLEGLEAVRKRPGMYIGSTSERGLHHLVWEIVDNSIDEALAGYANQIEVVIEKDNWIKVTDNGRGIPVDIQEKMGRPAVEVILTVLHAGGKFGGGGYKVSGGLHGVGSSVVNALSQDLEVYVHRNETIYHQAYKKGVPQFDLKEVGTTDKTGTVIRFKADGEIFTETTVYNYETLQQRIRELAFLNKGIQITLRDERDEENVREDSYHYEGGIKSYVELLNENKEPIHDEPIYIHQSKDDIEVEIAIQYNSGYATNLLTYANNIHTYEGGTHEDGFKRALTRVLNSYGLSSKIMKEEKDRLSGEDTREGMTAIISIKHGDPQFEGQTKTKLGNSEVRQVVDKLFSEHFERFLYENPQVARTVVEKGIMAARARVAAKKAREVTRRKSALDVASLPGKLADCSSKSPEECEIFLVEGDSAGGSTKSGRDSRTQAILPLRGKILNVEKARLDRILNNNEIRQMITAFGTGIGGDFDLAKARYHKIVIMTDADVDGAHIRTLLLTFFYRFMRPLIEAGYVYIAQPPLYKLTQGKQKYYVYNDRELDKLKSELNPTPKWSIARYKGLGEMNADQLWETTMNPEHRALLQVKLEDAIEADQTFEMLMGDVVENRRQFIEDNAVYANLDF
Chain of DNA gyrase (Staphylococcus aureus, UniProt P0A0K8+P20831) (P20831 whole entry): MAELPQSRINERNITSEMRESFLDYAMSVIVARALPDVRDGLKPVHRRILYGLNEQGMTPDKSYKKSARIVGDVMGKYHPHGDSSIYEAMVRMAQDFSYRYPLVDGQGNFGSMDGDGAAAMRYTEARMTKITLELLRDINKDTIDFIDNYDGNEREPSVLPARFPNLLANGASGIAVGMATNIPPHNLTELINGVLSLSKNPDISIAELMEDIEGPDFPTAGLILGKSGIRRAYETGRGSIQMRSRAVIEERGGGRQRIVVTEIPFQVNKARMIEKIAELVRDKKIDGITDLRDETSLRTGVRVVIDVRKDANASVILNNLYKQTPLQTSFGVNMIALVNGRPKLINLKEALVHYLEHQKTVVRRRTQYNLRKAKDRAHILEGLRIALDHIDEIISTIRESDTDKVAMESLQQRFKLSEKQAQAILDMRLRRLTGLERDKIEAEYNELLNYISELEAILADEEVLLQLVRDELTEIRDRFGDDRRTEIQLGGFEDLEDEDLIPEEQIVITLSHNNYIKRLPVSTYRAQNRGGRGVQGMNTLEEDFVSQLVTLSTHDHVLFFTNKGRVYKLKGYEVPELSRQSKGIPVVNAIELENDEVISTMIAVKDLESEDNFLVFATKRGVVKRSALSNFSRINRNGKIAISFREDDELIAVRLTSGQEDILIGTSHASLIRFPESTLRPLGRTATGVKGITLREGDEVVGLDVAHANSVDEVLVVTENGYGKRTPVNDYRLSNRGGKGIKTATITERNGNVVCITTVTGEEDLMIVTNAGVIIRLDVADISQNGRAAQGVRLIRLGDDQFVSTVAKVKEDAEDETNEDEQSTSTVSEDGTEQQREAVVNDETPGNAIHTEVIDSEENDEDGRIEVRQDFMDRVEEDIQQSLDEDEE

SMILES: C=C(C)[C@@H]1CC=C2c3sc(-c4cc(O)cc(O)c4)nc3C[C@@H](C)[C@]2(C)C1
- MIC [1]: 3.12 µg/mL (≈ 8.49 µM)

SMILES: COC(=O)CC(=O)Nc1nc2c(s1)C[C@@H](NC(=O)c1[nH]c(C)c(Br)c1Cl)CC2
- MIC [2]: 8 µg/mL (≈ 16.3 µM)
- IC50 [3]: 0.056 µM
- IC50 [4]: 3.7 µM

SMILES: NC(=S)N/N=C/C1=CC(c2ccc([N+](=O)[O-])cc2[N+](=O)[O-])C=C1c1ccc(Cl)cc1Cl (configuration not stated)
- MBC [5]: 38 µg/mL

SMILES: O=C(O)c1cccc(N2C(=O)/C(=C/c3c[nH]c4ccccc34)SC2=S)c1
- MIC [6]: 12 µg/mL (≈ 31.5 µM)

SMILES: CCCC(C(=O)O)N1C(=O)/C(=C/c2c[nH]c3ccccc23)SC1=S (configuration not stated)
- MIC [7]: 250 µg/mL (≈ 694 µM)
